Records with an inconclusive call do not appear. Activity calls are given as the source filed them.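 Rule for the calls: active = signal-lowering compounds whose fitted half-maximal concentration is at most ten times their highest tested dose; inconclusive = flat fit between -30 and -70%, or poor fit; inactive = flat within 30%, signal rising, or potency beyond limit.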
Biological target: POS-1 (Caenorhabditis elegans) binding to mex-3 RNA
Assay: inhibitors of POS-1/mex-3 RNA binding, dose response, counter-screen for MEX-5 RNA-binding inhibitor project, biochemical, fluorescence polarization, cherry-picked samples, set 2 (AID 493130);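 note: POS-1 as maltose binding protein fusion made in E. coli with FITC RNA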
Conditions: POS-1/mex-3 RNA fluorescence polarization, 1 h; for activity change, negative = inhibition: at 10 µM (top of the series)

SMILES	activity change, negative = inhibition	AC50
COc1ccc(C(=O)NNC(=O)C(=O)/C=C(\O)c2ccc(C)cc2)cc1	inactive	–
O=[N+]([O-])c1ccc(NCc2ccccc2)c2nonc12	–	0.434 µM
NS(=O)(=O)c1ccc(-c2ccc(C=C3C(=O)NC(=S)NC3=O)o2)cc1	–	8.28 µM
O=C(O)c1ccc(NCc2cccnc2)cc1	inactive	–
O=C(NC1CCSc2ccccc21)c1ccc([N+](=O)[O-])cc1 (centres undefined)	inactive	–
CCOc1nc(-c2ccccc2)c2cc(Br)ccc2n1	inactive	–
CC1(C)CC(=O)C2=C(C1)N=c1s/c(=C/c3ccc(F)c(F)c3)c(=O)n1C2c1ccc(F)cc1 (centres undefined)	–	> 10 µM (inactive)
Oc1ccc(Br)cc1C=Nc1cccn2cc(-c3ccccc3)nc12	inactive	–
O=[N+]([O-])c1cc(S(=O)(=O)c2ccc(O)c([N+](=O)[O-])c2)ccc1O	inactive	–
Nc1nnc(CC(=O)N/N=C/c2cc([N+](=O)[O-])cc(Br)c2O)s1	–	6.03 µM
O=C(c1ccc(Cl)cc1)C1C2C(=O)N(c3ccccc3)C(=O)C2C2CCCN21 (centres undefined)	–	5.95 µM
CCOc1cc(/C=C2\CCCc3c2nc2ccccc2c3C(=O)O)ccc1OC	–	0.948 µM
Cc1cccn2c(=O)c3cc(C(=O)NCCCn4ccnc4)n(C)c3nc12	inactive	–
O=C(O)c1ccccc1NS(=O)(=O)c1cccc(-n2sc3ccccc3c2=O)c1	–	8.72 µM
COc1ccc2c(c1)NP(=S)(Oc1ccccc1)N2 (centres undefined)	–	6.91 µM
Oc1c(Cl)cc(Cl)c2c1NCCC2	inactive	–
COc1cc2c(cc1OC)[C@@H](Cc1ccc(OCCC#N)cc1)N(C)CC2	inactive	–
O=c1[nH]c2ccccc2n1Cc1ccc(Cl)cc1	inactive	–
Nc1cc(C(=O)O)c(Oc2ccc(Cl)cc2Cl)cc1C(=O)O	inactive	–
C#CCOCCOCCOCCNc1nc(N2CCN(C(=O)[C@H]([C@@H](C)CC)n3cc([C@@H](N)CO)nn3)CC2)nc(N2CCN(C(=O)[C@H]([C@@H](C)CC)n3cc([C@@H](N)CO)nn3)CC2)n1	inactive	–
OC(CNC1CCCC1)COc1ccccc1Br (centres undefined)	inactive	–
Cc1cc(=O)[nH]c(SCc2nc3ccc([N+](=O)[O-])cc3[nH]2)n1	inactive	–
CCOC(=O)C1(C)/C(=N/Nc2cccc(Cl)c2)C(=O)C(=O)N1c1ccccc1 (centres undefined)	inactive	–
Cn1cc(CNC(=O)C2c3ccccc3Oc3ccccc32)cn1	inactive	–

SMILES	activity change, negative = inhibition	AC50
C[n+]1c2ccccc2nc2ccc(NCCO)cc21	inactive	–
Cc1ccc(NC(=O)CCC(=O)NNC(=S)Nc2ccc(F)cc2)c(C)c1	inactive	–
COC(=O)c1ccc(CC(=O)c2c(C)cc(O)cc2O)o1	inactive	–
O=C(O)/C=C/C(=O)NNc1ncnc2ccccc12	inactive	–
CC(C#N)(Nc1ccc(Cl)cc1)c1cccnc1 (centres undefined)	inactive	–
COCCn1c(=N)c(S(=O)(=O)c2ccc(F)cc2)cc2c(=O)n3ccccc3nc21	inactive	–
O=C1c2cccc3cccc(c23)C(=O)N1Cc1ccccc1	inactive	–
CCOC(=O)C1CSc2[nH]c(=O)sc2C1c1ccccc1 (centres undefined)	inactive	–
Cc1c(NC(=O)c2ccc(=O)oc2)c(=O)n(-c2ccccc2)n1C	inactive	–
CC(=O)Nc1ccc(-c2csc(Nc3cccc(C)n3)n2)cc1	inactive	–
CCN(Cc1ccccc1)c1ccc(/C=C(\C#N)c2ccccn2)cc1	inactive	–
O=[N+]([O-])c1ccc(-c2cn3nc(-c4ccccc4)c(-c4ccccc4)nc3n2)cc1	inactive	–
CC(=O)Nc1ccc(N=NC2C(=O)N(C(N)=S)N=C2C)cc1 (centres undefined)	inactive	–
CCOc1ccc(/C=C2\SC(=S)N(Nc3ccccc3)C2=O)cc1OC	inactive	–
Cn1nc(C(=O)NNC(=O)c2ccc(Cl)cc2)ccc1=O	inactive	–
NS(=O)(=O)c1ccc(N=Nc2ccc(=O)[nH]c2O)cc1	inactive	–
Oc1sc(C=Nc2ccc(F)cc2)c2ccccc12	inactive	–
COC(=O)c1ccc(-c2ccc(C(c3c(C)[nH][nH]c3=O)c3c(C)[nH][nH]c3=O)o2)cc1	inactive	–
Cc1ccccc1S(=O)(=O)NNC(=O)C(=O)NNc1ccccn1	inactive	–
COC(=O)c1ccccc1N=Nc1c(N)n[nH]c1N	inactive	–
CCOC(=O)C1CCN(c2nc(N)c3c(N)nc(SCC(=O)O)cc3c2C#N)CC1	inactive	–
C=CCn1c(=O)[nH]c2nc3cc(N=CN(C)C)c(C)cc3nc2c1=O	–	7.27 µM
CN(C)c1ncnc2c1NC1=C(S2)C(=NCCCC(=O)O)CC(C)(C)C1	inactive	–
COc1cccc(/C=N/NC(=O)N/N=C/c2cccc(OC)c2O)c1O	inactive	–

SMILES	activity change, negative = inhibition	AC50
CCCCN1C(=O)C2Cc3c([nH]c4ccccc34)CN2C1=S (centres undefined)	–	8.04 µM
CC(=O)CSc1ncnc2nc[nH]c12	inactive	–
CCn1c(C)nc2c1C(=O)c1ccccc1C2=O	inactive	–
Cc1cccc(C)c1NC(=O)/C(C#N)=C/c1cccs1	inactive	–
O=c1c2ccccc2nc(/C=C/c2ccc([N+](=O)[O-])o2)n1-c1ccc(O)cc1	inactive	–
O=C(C[n+]1ccc(C(=O)N/N=C/c2ccc(OCc3ccccc3)cc2)cc1)c1ccccc1	inactive	–
CN(C)c1ccc(/C=C/c2nc3ccccc3c(=O)[nH]2)cc1	inactive	–
Oc1ccc(/C=N/NC(=S)Nc2cccnc2)cc1O	–	9.5 µM
CC(C)(C)N(CC#CCC(O)(c1ccccc1)c1ccccc1)CCO	inactive	–
O=Cc1ccc2ccc3cccnc3c2n1	inactive	–
O=C(NC1CCSc2ccccc21)c1ccccc1Br (centres undefined)	inactive	–
Cc1cc(=O)n2[nH]c(=O)c(N=Nc3ccccc3)c2[nH]1	–	0.306 µM
O=C1C(Cl)=C(NC(=O)c2ccccc2)C(=O)C(Cl)=C1NC(=O)c1ccccc1	–	10.2 µM
COc1cc2c(cc1O)C[C@H]1NCCc3cc4c(c-2c31)OCO4	inactive	–
Cc1ccc(C)c(NC(=O)CCC(=O)NNC(=S)Nc2ccccc2)c1	inactive	–
N#CC1(C#N)C(c2ccccc2)OC23CCCCC2C1(C#N)C(=N)O3 (centres undefined)	–	4.61 µM
O=C(N/N=C/c1ccncc1)c1cc([N+](=O)[O-])cc([N+](=O)[O-])c1O	inactive	–
COC(=O)CCC(=O)NC(=S)Nc1sc(C)c(C)c1C(N)=O	inactive	–
CC1CN(c2nc3ccccc3nc2C(C#N)C(=O)NCc2ccc3c(c2)OCO3)CC(C)O1 (centres undefined)	inactive	–
COc1nc(N/N=C/c2ccc(-c3ccccc3[N+](=O)[O-])o2)nc(N2CCOCC2)n1	inactive	–
COc1cc2c(cc1OC)-c1c(OC)c(OC)cc3c1C(C2)N(C)CC3 (centres undefined)	inactive	–
O=C(N/N=C/c1cc2c(cc1Cl)OCO2)c1ccccn1	inactive	–
Cc1c(C#N)c(O)[nH]c(=O)c1N=Nc1ccc(S(N)(=O)=O)cc1	inactive	–
O=C(O)c1ccc(NC2=C(Cl)C(=O)c3ccccc3C2=O)cc1	inactive	–

SMILES	activity change, negative = inhibition	AC50
CCN(CC)c1ccc(N2C(=O)c3ccccc3C2=O)cc1	inactive	–
COc1cc2c(cc1N/C=C(\C#N)c1nc(-c3ccc(F)cc3)cs1)oc1ccccc12	inactive	–
O=C(Nc1nc2c(s1)CN(Cc1ccccc1)CC2)c1cccc(S(=O)(=O)N2CCc3ccccc32)c1	–	7.79 µM
CCOC(=O)CC1=C(C(=O)OCC)C(c2ccc(OC)c(OC)c2)C(C#N)=C(N)O1 (centres undefined)	inactive	–
Cc1ccc(C)n1-c1ccccc1N	–	5.78 µM
N=C1C(c2nc3ccccc3[nH]2)=C(O)CN1c1ccccc1	inactive	–
O=c1oc2cc([N+](=O)[O-])ccc2nc1/C=C(\O)c1cccc(Br)c1	inactive	–
O=C(O)Cc1c[nH]c2cccc(O)c12	inactive	–
COc1ccc(/C=N/NC(=S)Nc2cccc(C(=O)O)c2)cc1	inactive	–
O=C1NC(=O)/C(=C/c2ccc(N3CCOCC3)o2)N1	inactive	–
Cc1sc2ncnc(N/N=C/c3ccccc3O)c2c1C	inactive	–
CC1CCN(Cc2c(O)ccc3c2O/C(=C\c2ccco2)C3=O)CC1	–	3.53 µM
Cc1c(-c2ccc(F)cc2)nc(N)c(C#N)c1-c1ccco1	inactive	–
COc1ccc(OC)c(/C=N/NC(=O)c2ccc(=O)[nH]n2)c1	inactive	–
O=C(CCN1C(=O)/C(=C/c2ccccc2Cl)SC1=S)NNC(=O)c1ccccc1O	inactive	–
Cn1ncc2c(NNC(=O)c3ccccc3Cl)ncnc21	inactive	–
Cc1ccc(N/N=C(\C#N)C(=O)c2ccsc2)cc1	inactive	–
COc1ccc(CCn2c(=N)c(C(=O)NCC3CCCO3)cc3c(=O)n4ccccc4nc32)cc1 (centres undefined)	inactive	–
Cc1cc2c(C)nc(N/N=C/c3ccc([N+](=O)[O-])cc3)nc2o1	inactive	–
CNC(=O)c1c(NC(=O)c2ccc(S(=O)(=O)N(C)c3ccccc3)cc2)sc2c1CCN(C(C)C)C2	inactive	–
O=[N+]([O-])c1ccccc1NC(=S)N/N=C/c1ccc(O)c(O)c1	–	5.42 µM
O=C(O)c1c2c(nc3ccccc13)/C(=C/c1ccc(O)cc1)CC2	inactive	–

Source: PubChem BioAssay AID493130 (Broad Institute, 2011)
